Results reported in ChEMBL document CHEMBL1201862, “PubChem BioAssay data set” (2004).
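Exposure lasted 48 hours, with cells grown in 96-well plates and compounds tested at five concentrations. GI50 marks 50% less growth.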 The source made the active and inactive calls. Cut-off read from the data, not from the text of the source: active = GI50 up to about 1.1 µM and inactive = higher.

How the values were obtained:
Experiment in all cases: growth of human tumour cells (NCI), 48 h
ACHN = system: ACHN
DMS-114 = system: DMS-114
DMS-273 = system: DMS-273
HCC 2998 = system: HCC 2998
HCT-116 = system: HCT-116
IGROV-1 = system: IGROV-1
K562 = system: K562
NCI-H23 = system: NCI-H23
OVCAR-5 = system: OVCAR-5
RXF 393 = system: RXF 393
SF-539 = system: SF-539
SK-MEL-2 = system: SK-MEL-2
SW-620 = system: SW-620
UACC-62 = system: UACC-62
XF498 = system: XF498

Measured: GI50

COc1ccc2c(c1)[n+]([O-])c(C(=O)C/C(=N/NC(=O)c1ccccc1O)C(=O)Nc1ccc(Cl)c(C(F)(F)F)c1)c(C)[n+]2[O-]
inactive: ACHN 68.9 µM | DMS-114 71.8 µM | DMS-273 49.9 µM | HCC 2998 32.7 µM | HCT-116 48.2 µM | IGROV-1 44 µM | K562 64.4 µM | NCI-H23 47.5 µM | OVCAR-5 45.4 µM | RXF 393 > 100 µM | SF-539 > 100 µM | SK-MEL-2 > 100 µM | SW-620 62.1 µM | UACC-62 > 100 µM | XF498 > 100 µM

CCN(CC)CCC(=O)NC1c2ccccc2Oc2c(C)cccc21 (stereo not given)
inactive: ACHN > 100 µM | DMS-114 > 100 µM | DMS-273 > 100 µM | HCC 2998 > 100 µM | HCT-116 > 100 µM | IGROV-1 > 100 µM | K562 > 100 µM | NCI-H23 > 100 µM | OVCAR-5 > 100 µM | RXF 393 > 100 µM | SF-539 > 100 µM | SW-620 > 100 µM | UACC-62 > 100 µM | XF498 > 100 µM

COc1ccc(/C=C(\NC(=O)c2ccccc2)c2nc3ccccc3[nH]2)cc1OC
inactive: ACHN > 100 µM | DMS-114 > 100 µM | HCC 2998 > 100 µM | HCT-116 > 100 µM | IGROV-1 > 100 µM | K562 > 100 µM | NCI-H23 > 100 µM | OVCAR-5 > 100 µM | RXF 393 > 100 µM | SF-539 > 100 µM | SK-MEL-2 > 100 µM | SW-620 > 100 µM | UACC-62 > 100 µM | XF498 > 100 µM

CC(C)(C)[Si](Nc1ccccc1)(c1ccccc1)c1ccccc1
inactive: ACHN 16.2 µM | DMS-114 13.2 µM | DMS-273 13.6 µM | HCC 2998 16.1 µM | HCT-116 7.91 µM | IGROV-1 14.7 µM | K562 8.26 µM | NCI-H23 16.9 µM | RXF 393 13.6 µM | SF-539 12.5 µM | SK-MEL-2 18.4 µM | SW-620 17.4 µM | UACC-62 10.6 µM | XF498 14.6 µM

C[s+]1c2ccccc2c2ccccc21
inactive: ACHN > 100 µM | DMS-273 > 100 µM | HCC 2998 > 100 µM | HCT-116 > 100 µM | IGROV-1 > 100 µM | K562 > 100 µM | NCI-H23 > 10 µM | OVCAR-5 > 100 µM | RXF 393 > 100 µM | SF-539 > 100 µM | SK-MEL-2 > 100 µM | SW-620 > 100 µM | UACC-62 > 100 µM | XF498 > 100 µM

O=C1OC2C(O)COC2(O)C1(O)Cc1c[nH]c2ccccc12 (stereo not given)
inactive: DMS-114 > 100 µM | DMS-273 > 100 µM | HCT-116 > 100 µM | IGROV-1 > 100 µM | K562 > 100 µM | NCI-H23 > 100 µM | OVCAR-5 > 100 µM | RXF 393 > 100 µM | SF-539 > 100 µM | SK-MEL-2 > 100 µM | SW-620 > 100 µM | UACC-62 > 100 µM | XF498 > 100 µM

Clc1cccc(Cl)c1C1SCc2nc3ccccc3n21 (stereo not given)
inactive: ACHN > 100 µM | DMS-114 25.2 µM | DMS-273 14.6 µM | HCC 2998 > 100 µM | HCT-116 9.23 µM | IGROV-1 37.2 µM | K562 10.7 µM | NCI-H23 > 100 µM | OVCAR-5 > 100 µM | RXF 393 > 100 µM | SF-539 > 100 µM | SW-620 46.7 µM | UACC-62 50.1 µM | XF498 > 100 µM

CCN(CC)CC1CCCCN1CC(=O)N1c2cc(Cl)ccc2NC(=O)CC1C (stereo not given)
inactive: ACHN > 100 µM | DMS-114 > 100 µM | DMS-273 > 100 µM | HCC 2998 > 100 µM | HCT-116 > 100 µM | K562 > 100 µM | NCI-H23 > 100 µM | OVCAR-5 > 100 µM | SF-539 > 100 µM | SK-MEL-2 > 100 µM | SW-620 > 100 µM | UACC-62 55.3 µM | XF498 > 100 µM

N=C(N)NS(=O)(=O)c1ccc(NC(=O)c2cccc3c(Nc4ccc(S(=O)(=O)N=C(N)N)cc4)c4ccccc4nc23)cc1
inactive: ACHN 51.1 µM | DMS-114 24.9 µM | DMS-273 55.2 µM | HCT-116 38 µM | IGROV-1 70.5 µM | K562 5.98 µM | NCI-H23 44.3 µM | OVCAR-5 > 100 µM | RXF 393 99.1 µM | SF-539 41.1 µM | SK-MEL-2 > 100 µM | SW-620 31.4 µM | UACC-62 45.8 µM | XF498 > 100 µM

Cn1ccnc1C(c1nccn1C)C(C)(C)[N+](=O)[O-]
inactive: ACHN > 100 µM | DMS-114 > 100 µM | DMS-273 > 100 µM | HCC 2998 > 100 µM | HCT-116 > 100 µM | K562 > 100 µM | RXF 393 > 100 µM | SF-539 > 100 µM | SK-MEL-2 > 100 µM | SW-620 > 100 µM | UACC-62 12.4 µM | XF498 > 100 µM

Cc1ccc(-c2nnc(SCC(=O)O)[nH]2)cc1
inactive: ACHN > 100 µM | DMS-114 > 100 µM | DMS-273 > 100 µM | HCC 2998 > 100 µM | HCT-116 > 100 µM | IGROV-1 > 100 µM | K562 > 100 µM | NCI-H23 > 100 µM | OVCAR-5 > 100 µM | SF-539 > 100 µM | SK-MEL-2 > 100 µM | SW-620 > 100 µM | UACC-62 > 100 µM | XF498 > 100 µM

Cn1ncc2c(Nc3ccc(Cl)cc3)c3ccccc3nc21
inactive: ACHN 17 µM | DMS-114 13.4 µM | DMS-273 15.2 µM | HCC 2998 22.9 µM | HCT-116 12.2 µM | IGROV-1 21.2 µM | K562 16.2 µM | NCI-H23 > 10 µM | OVCAR-5 23.2 µM | SF-539 15.6 µM | SK-MEL-2 18.4 µM | SW-620 16.6 µM | UACC-62 15.1 µM | XF498 > 10 µM

Cn1cnc([N+](=O)[O-])c1Sc1nc2ccccc2[nH]1
inactive: ACHN 22.8 µM | DMS-114 8.26 µM | DMS-273 1.91 µM | HCC 2998 12.3 µM | HCT-116 14.8 µM | IGROV-1 13.9 µM | K562 20.3 µM | NCI-H23 19.1 µM | OVCAR-5 52.8 µM | RXF 393 11.4 µM | SF-539 14.2 µM | SW-620 > 10 µM | XF498 3.65 µM

CCOC(=O)COc1ccc(OC)c2c1C(=O)CCC2
inactive: ACHN > 100 µM | DMS-114 > 100 µM | DMS-273 > 100 µM | HCT-116 > 100 µM | IGROV-1 > 100 µM | K562 > 100 µM | NCI-H23 > 100 µM | RXF 393 > 100 µM | SF-539 > 100 µM | SW-620 > 100 µM | UACC-62 > 100 µM | XF498 > 100 µM
